# From patent publication US20080207569A1, “Methods for the treatment of liver diseases” (priority 2007, published 2008)
# Key:
# [1] = system: TNF-α/D-Galactosamine induced liver injury; assay: TNF-α model of liver injury (TNFα/D-Gln), plasma ALT activity; type: in vivo, male C57B1/6 mice
# Experimental: TNF-α is a cytokine that is implicated in inducing liver injury in a variety of acute and chronic liver diseases such as chronic HCV and acute liver failure. An exemplary in vivo model to test pharmacological agents against TNF-α induced injury is the TNF-α/D-Gal model of liver injury in mice. In this model, mice are treated with TNF-α/D-Gal and compound is administered to evaluate its ability to protect against liver damage. The compound is administered either before, at the time of or after the treatment with TNF-α/D-Gal, and followed for a period of approximately 6 hours. […]
# Multiple outcome measures are used for this evaluation. […] The extent of liver damage can be graded by examining liver samples prepared and evaluated microscopically by trained observers. […] In certain embodiment, compounds described herein protect against TNF-α/D-Gal induced liver injury as determined by these parameters. In certain embodiment, compounds described herein protect against Fas induced liver injury as determined by these parameters. […]
# In vivo efficacy of RO-113-0830 was assessed using male C57B1/6 mice (Simonsen Labs) in two well-established models of liver damage. […]
# In the TNF-α model of liver injury, D-Galactosamine (D-Gln) (800 mg/kg) and TNFα (20 or 40 μg/kg) were injected IP. […] Plasma ALT activity was determined using a kit from Sigma-Aldrich.
# [2] = system: TNF-α/D-Galactosamine induced liver injury; assay: TNF-α model of liver injury, 24 hour survival; type: in vivo, male C57B1/6 mice; details: TNF-α/D-Gln IP; average from 3 studies; p=0.03 vs control mice (27±7.3%)
# Experimental: TNF-α is a cytokine that is implicated in inducing liver injury in a variety of acute and chronic liver diseases such as chronic HCV and acute liver failure. An exemplary in vivo model to test pharmacological agents against TNF-α induced injury is the TNF-α/D-Gal model of liver injury in mice. In this model, mice are treated with TNF-α/D-Gal and compound is administered to evaluate its ability to protect against liver damage. The compound is administered either before, at the time of or after the treatment with TNF-α/D-Gal, and followed for a period of approximately 6 hours. Allowing this model to persist past 6 hours is a variation used to determine the improved survival afforded by compound treatment.
# (§1) In vivo efficacy of RO-113-0830 was assessed using male C57B1/6 mice (Simonsen Labs) in two well-established models of liver damage. The mice were allowed to acclimate for at least three days.
# To determine a benefit on survival, TNF-α model, D-Galactosamine (D-Gln) (800 mg/kg) and TNF-α (20 or 40 μg/kg) were injected IP, and mice were allowed to survive for 24 hours post insult. All morbid mice were euthanized with 125 mg/kg of Nembutal IP. The average 24 hour survival from 3 studies was 27±7.3% and. 55±7.6% (p=0.03) in the TNFα/D-Gln control mice and RO-113-0830-treated mice, respectively.
# Fas-induced liver damage = assay: Fas driven model of liver damage (activating antibody Jo-2), plasma ALT activity; type: in vivo, male C57B1/6 mice; details: 10 mg/kg PO; six hours after Jo-2 IV; average of 2 studies, p<0.05 in each
# Experimental: as §1
# In a Fas driven model of liver damage, an activating antibody to Fas (Jo-2) was administered IV. Six hours later, animals were anesthetized with Nembutal (50 mg/kg IP), and blood was taken by cardiac puncture. Plasma ALT activity was determined using a kit from Sigma-Aldrich.
# [3] = system: full-length HCV replicon in Huh7 human hepatoma cell line (21-5); assay: HCV RNA replicon antiviral evaluation assay; type: cell-based, hepatitis C virus; details: 72 hr; HCV RNA replicon levels by TaqMan RT-PCR; read-out: EC50 (concentration inhibition virus replication by 50%)
# Experimental: The assay was conducted as described by Pietschmann, T. et al., supra.
# Human interferon alpha-2b was included in each run as a positive control compound. Subconfluent cultures of the ET line were plated out into 96-well plates that were dedicated for the analysis of cell numbers (cytotoxicity) or antiviral activity and the next day drugs were added to the appropriate wells. Cells were processed 72 hr later when the cells were still sub-confluent. HCV RNA replicon levels and the toxic concentration of drug that reduces cell numbers, as indicated by host cell ribosomal RNA (rRNA) levels, were assessed by TaqMan RT-PCR. The EC50 (concentration inhibition virus replication by 50%), IC50 (concentration decreasing cell viability by 50%) and SI50 (selective index: IC50/EC50) values were calculated.
# [4] = system: Huh7 human hepatoma cell line (the 21-5 cell line); details: read-out: IC50 for cytotoxicity (concentration decreasing cell viability by 50%); 72 hr; host cell rRNA levels by TaqMan RT-PCR
# From the text: Cells were processed 72 hr later when the cells were still sub-confluent.
# [5] = system: bile duct ligation (BDL) induced liver injury and hepatic fibrosis; assay: Bile duct ligation model of liver fibrosis; type: in vivo, C57/BL6 wild-type mice; details: 10 mg/kg once a day by gavage
# Experimental: The bile duct ligation model is a well characterized model of liver fibrosis. Briefly, C57/BL6 wild-type mice 6 to 8 weeks of age were subjected to bile duct ligation (BDL) for 14 days. Sham-operated wild type mice were used as controls. Either RO 113-0830 or CMC (carboxymethylcellulose) were administered by gavage in a dose of 10 mg/kg body weight once a day. Hepatocyte apoptosis was quantified by the TUNEL assay and immunofluorescence for activated caspases 3/7. Liver injury was assessed by histopathology, and quantification of bile infarcts. Hepatic fibrosis was assessed by Sirius red staining and quantitative morphometry. Real-time polymerase chain reaction (PCR) was used to measure mRNA transcripts for collagen 1 alpha (I) and alpha-smooth muscle actin.
structure (smiles),measurement,setting,value
O=C(NO)C1(CS(=O)(=O)c2ccc(Oc3ccc(Cl)cc3)cc2)CCOCC1 [RO-113-0830],"plasma ALT activity, effect in words","[1]; 0.001-30 mg/kg PO 30 minutes before insult, six hours",dose-dependently decreased plasma ALT activity
same,ED50 for decrease of plasma ALT activity,"[1]; PO by gavage 30 minutes before TNFα/D-Gln insult, ALT six hours later, average from 4 studies",0.26 ± 0.08 mg/kg
same,24 hour survival,[2],55±7.6%
same,reduction of Fas-induced elevation in plasma ALT activity,Fas-induced liver damage,50%
same,EC50,[3],0.07 µM
same,IC50,[4],~25 µM
same,reduction of Sirius red staining of hepatic collagen,[5]; 14 days of BDL,3 fold
same,reduction in the number of bile infarcts vs vehicle,"[5]; 14 days of BDL, histologic examination",> 70%
same,decrease in TUNEL-positive hepatocytes vs vehicle,"[5]; 14 days of BDL, p<0.01",3 fold
same,decrease in caspase 3/7-positive hepatocytes vs vehicle,"[5]; 14 days of BDL, p<0.01",5 fold
same,reduction of hepatic mRNA for alpha-smooth muscle actin vs vehicle,"[5]; 14 days of BDL, real-time PCR",> 60%
same,reduction of hepatic mRNA for collagen I vs vehicle,"[5]; 14 days of BDL, real-time PCR",> 60%
same,overall animal survival following 14 days of BDL,[5]; p<0.05,significantly enhanced
